In US8293768B2, “Organic compounds” (Novartis AG, priority 2006, dated 2012):

Row | SMILES | melting point [°C]
1 | Cc1nc(N2CCN(CC3CCCC3)C2=O)sc1C(=O)NCc1cccnc1 [Example 9.38, 2-(3-(cyclopentylmethyl)-2-oxoimidazolidin-1-yl)-4-methyl-N-(pyridin-3-ylmethyl)thiazole-5-carboxamide] | 142 to 143
2 | CNC(=O)c1ccc(CN2CCN(c3nc(C)c(C(C)=O)s3)C2=O)cc1 [Example 8.6, 4-((3-(5-acetyl-4-methylthiazol-2-yl)-2-oxoimidazolidin-1-yl)methyl)-N-methylbenzamide] | 173 to 175
3 | Cc1nc(N2CCN(Cc3ccccc3)C2=O)sc1C(=O)NCc1ccccc1 [Example 8, N-benzyl-2-(3-benzyl-2-oxoimidazolidin-1-yl)-4-methylthiazole-5-carboxamide] | 169 to 171
4 | Cc1nc(N2CCN(CC3CCCCO3)C2=O)sc1C(=O)NCc1cccnc1 (centres unmarked) [Example 9.36, 4-methyl-2-(2-oxo-3-((tetrahydro-2H-pyran-2-yl)methyl)imidazolidin-1-yl)-N-(pyridin-3-ylmethyl)thiazole-5-carboxamide] | 174 to 175
5 | Cc1cc(-c2sc(N3CCN(Cc4ccc(C(F)(F)F)cc4)C3=O)nc2C)n[nH]1 [Example 38.2, 1-(4-methyl-5-(5-methyl-1H-pyrazol-3-yl)thiazol-2-yl)-3-(4-(trifluoromethyl)benzyl)imidazolidin-2-one] | 238 to 239
6 | Cc1nc(N2CCN(CCC3CC3)C2=O)sc1C(=O)NCc1ccc(F)cc1 [Example 9.18, 2-(3-(2-cyclopropylethyl)-2-oxoimidazolidin-1-yl)-N-(4-fluorobenzyl)-4-methylthiazole-5-carboxamide] | 122 to 123
7 | Cc1nc(-n2cnn(Cc3ccc(F)cc3)c2=O)sc1C(=O)NCc1cn(C)cn1 [Example 21.14, 2-(1-(4-fluorobenzyl)-5-oxo-1H-1,2,4-triazol-4(5H)-yl)-4-methyl-N-((1-methyl-1H-imidazol-4-yl)methyl)thiazole-5-carboxamide] | 225 to 226
8 | Cc1nc(N2CCN(Cc3nc(C)n(-c4ccccc4)n3)C2=O)sc1C(=O)NCc1ccccc1 [Example 23.5, N-benzyl-4-methyl-2-(3-((5-methyl-1-phenyl-1H-1,2,4-triazol-3-yl)methyl)-2-oxoimidazolidin-1-yl)thiazole-5-carboxamide] | 139 to 141
9 | Cc1cc(N2CCN(CC3CC3)C2=O)sc1C(=O)NCc1cccnc1 [Example 15.3, 5-(3-(cyclopropylmethyl)-2-oxoimidazolidin-1-yl)-3-methyl-N-(pyridin-3-ylmethyl)thiophene-2-carboxamide] | 157 to 159
10 | Cc1nc(N2CCN(Cc3ccccc3)S2(=O)=O)sc1C(=O)NCc1cccnc1 [Example 27.2, 2-(5-benzyl-1,1-dioxido-1,2,5-thiadiazolidin-2-yl)-4-methyl-N-(pyridin-3-ylmethyl)-1,3-thiazole-5-carboxamide] | 140 to 142
11 | Cc1cc(-n2cnn(Cc3ccc(F)cc3)c2=O)sc1C(=O)NCc1cnn(C)c1 [Example 31.7, 5-(1-(4-fluorobenzyl)-5-oxo-1H-1,2,4-triazol-4(5H)-yl)-3-methyl-N-((1-methyl-1H-pyrazol-4-yl)methyl)thiophene-2-carboxamide] | 168 to 170
12 | Cc1nc(-n2cnn(Cc3ccc(F)cc3)c2=O)sc1C(=O)NCc1nccs1 [Example 21.12, 2-(1-(4-fluorobenzyl)-5-oxo-1H-1,2,4-triazol-4(5H)-yl)-4-methyl-N-(thiazol-2-ylmethyl)thiazole-5-carboxamide] | 189 to 190
13 | Cc1cc(N2CCN(Cc3ccc(F)cc3)C2=O)sc1C(=O)NCc1cccs1 [Example 55.5, 5-(3-(4-fluorobenzyl)-2-oxoimidazolidin-1-yl)-3-methyl-N-(thiophen-2-ylmethyl)thiophene-2-carboxamide] | 128 to 131
14 | CCOC(=O)c1sc(N2CCNC2=O)nc1C [Example 3, ethyl 4-methyl-2-(2-oxoimidazolidin-1-yl)thiazole-5-carboxylate] | 197 to 199
15 | Cc1nc(N2CCN(Cc3ccc(OC(F)(F)F)cc3)C2=O)sc1C(=O)NCCC1CC1 [Example 8.3, N-(2-cyclopropylethyl)-4-methyl-2-(2-oxo-3-(4-(trifluoromethoxy)benzyl)imidazolidin-1-yl)thiazole-5-carboxamide] | 195 to 196
16 | Cc1nc(N2CCN(Cc3ccccc3)C2=O)sc1C(=O)NCc1ccc(F)cc1F [Example 9.4, 2-(3-benzyl-2-oxoimidazolidin-1-yl)-N-(2,4-difluorobenzyl)-4-methylthiazole-5-carboxamide] | 157 to 158
17 | CCOC(=O)c1sc(N2CCN(Cc3ccccc3)C2=O)nc1C [Example 5, ethyl 2-(3-benzyl-2-oxoimidazolidin-1-yl)-4-methylthiazole-5-carboxylate] | 122 to 124
18 | Cc1nc(N2CCN(Cc3ccc(OC(F)(F)F)cc3)C2=O)sc1C(=O)NCc1cccnc1 [Example 9.22, 4-methyl-2-(2-oxo-3-(4-(trifluoromethoxy)benzyl)imidazolidin-1-yl)-N-(pyridin-3-ylmethyl)thiazole-5-carboxamide] | 165 to 166
19 | Cc1nc(N2CCN(Cc3ccccc3)C2=O)sc1C(=O)NCc1ccccc1F [Example 9.1, 2-(3-benzyl-2-oxoimidazolidin-1-yl)-N-(2-fluorobenzyl)-4-methylthiazole-5-carboxamide] | 167 to 168
20 | Cc1nc(N2CCN(Cc3ccccc3)C2=O)sc1C(=O)NCc1cccc(F)c1 [Example 8.1, 2-(3-benzyl-2-oxoimidazolidin-1-yl)-N-(3-fluorobenzyl)-4-methylthiazole-5-carboxamide] | 169 to 171
21 | Cc1nc(N2CCN(c3ccccc3)C2=O)sc1C(=O)O [Example 6, 4-methyl-2-(2-oxo-3-phenylimidazolidin-1-yl)thiazole-5-carboxylic acid] | 286 to 289
22 | Cc1nc(-n2cnn(CCNc3ccc(F)cc3)c2=O)sc1C(=O)NCc1cccnc1 [Example 47.1, 2-(1-(2-(4-fluorophenylamino)ethyl)-5-oxo-1H-1,2,4-triazol-4(5H)-yl)-4-methyl-N-(pyridin-3-ylmethyl)thiazole-5-carboxamide] | 163 to 164
23 | Cc1nc(N2CCN(Cc3ccc4nsnc4c3)C2=O)sc1C(=O)NCc1cccnc1 [Example 32.7, 2-(3-(benzo[c][1,2,5]thiadiazol-5-ylmethyl)-2-oxoimidazolidin-1-yl)-4-methyl-N-(pyridin-3-ylmethyl)thiazole-5-carboxamide] | 105 to 107
24 | Cc1nc(N2CCN(Cc3ccccc3C(F)(F)F)C2=O)sc1C(=O)NCc1ccccc1 [Example 23.1, N-benzyl-4-methyl-2-(2-oxo-3-(2-(trifluoromethyl)benzyl)imidazolidin-1-yl)thiazole-5-carboxamide] | 138 to 140
25 | Cc1nc(N2CCNC2=O)sc1C(=O)NCc1ccccc1 [Example 22, N-benzyl-4-methyl-2-(2-oxoimidazolidin-1-yl)thiazole-5-carboxamide] | 226 to 228
26 | Cc1cnc(CNC(=O)c2sc(N3CCN(Cc4ccc(F)cc4)C3=O)nc2C)cn1 [Example 32.10, 2-(3-(4-fluorobenzyl)-2-oxoimidazolidin-1-yl)-4-methyl-N-((5-methylpyrazin-2-yl)methyl)thiazole-5-carboxamide] | 191 to 193
